In patent publication US20240101548A1, “HYDROXAMATE COMPOUND, PREPARATION METHOD THEREFOR AND APPLICATION THEREOF” (SHENZHEN CHIPSCREEN BIOSCIENCES CO., LTD., priority 2020, published 2024):
pIC50: −log10 of the molar value. Like-named read-outs stand apart in the source and are kept apart here.

How the values were obtained:
TYK2 JH2 domain = TYK2 JH2 domain (Homo sapiens (Human), UniProt P29597); assay: TYK2 JH2 domain FRET tracer assay; format: binding; details: FRET 665/615 nm; read-out: Inhibition activity IC50 on TYK2 JH2 domain
Method: Compound of the present invention formulated into different concentrations (series 3 times dilutions, started from 60 μM, 11 concentrations in total) was added to 384-well plate, followed by 5 μL of enzyme (i.e., TYK2 JH2 domain), Tb antibody (Cisbio) and tracer. The mixture was incubated at 25° C. for 60 min and left at 4° C. overnight.

[1] = tested on: IL-10-induced JAK1/TYK2 signal pathway; assay: IL-10-induced JAK1/TYK2 signal pathway STAT3-Luc reporter gene assay in U2OS cells; format: cell-based, human; details: U2OS cells, STAT3-Luc reporter, IL-10 10 ng/mL, read-out: Half inhibition dose (IC50) on IL-10-induced JAK1/TYK2 signal pathway
Procedure, shortened: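 U2OS cells co-transfected with IL-10R1-EGFP and STAT3-luciferase reporter plasmids; after 24 h, compound added (0–300 nM) for 6 h before 10 ng/mL human IL-10, then 24 h culture. Luciferase signal normalised to GFP for transfection efficiency; IC50 from inhibition rates.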

[2] = tested on: IL-2-induced JAK1/JAK3 signal pathway; assay: IL-2-induced proliferation of KHYG-1 cells (JAK1/JAK3 signal); format: cell-based, human; details: Homo sapiens; KHYG-1 cell proliferation, IL-2 10 ng/mL, 72 hours; read-out: Inhibition activity IC50 on IL-2-induced JAK1/JAK3 signal pathway
Procedure, shortened: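 KHYG-1 NK lymphoma cells were cultured with IL-2 and test compound at various doses for 72 h at 37 °C and 5% CO2, and proliferation was read with alamarBlue fluorescence. Inhibition was normalized to wells without compound or cytokine (0%) and IL-2 wells without compound (100%), and C50 was derived from the dose-inhibition data.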

[3] = tested on: EPO-induced JAK2 signal pathway; assay: EPO-induced proliferation of UT-7 cells (JAK2 signal); format: cell-based, human; details: Homo sapiens, UT7; UT-7 cell proliferation, EPO 10 ng/mL, 72 hours; read-out: Inhibition activity IC50 on EPO-induced JAK2 signal pathway
Procedure, shortened: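 UT-7 cells (15000/well) stimulated with 10 ng/mL human recombinant EPO plus compound at final 0, 100, 1000 or 10000 nM, 72 h at 37° C., 5% CO2. Proliferation by alamarBlue fluorescence (Ex530/Em590); inhibition normalised to no-cytokine/no-compound (0) and EPO-only (100) wells, […] derived from dose-inhibition.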

[4] = tested on: INF-α-induced pSTAT5 in human PBMC; assay: INF-α-induced pSTAT5 in human PBMC (FACS, CD3 positive cells); format: cell-based; details: IFN-α 30 ng/ml, read-out: Inhibition activity IC50 on INF-α-induced pSTAT5 in human PBMC
Method: hPBMC (available from Shanghai AoNeng Biotechnology Co., Ltd.) was inoculated in 96-well plate, added with compound of the present invention (at concentrations of 40 nM and 200 nM), incubated for 60 min (compound in concentrations of 2 nM, 10 nM respectively during the incubation); added with 30 ng/ml of stimulating factor IFN-α (BioLegend) together with anti-CD3 antibody (Biolegend) and then continued to be incubated for 30 min. After the incubation, each well was added with 1 mL of fixing solution (BD Biosciences), the obtained mixture was incubated for 10 min followed by centrifugation, added with 400 μL/well of Perm III (BD Biosciences), followed by further incubation at 4° C. for 30 min. The obtained mixture was added with mouse anti-human pSTAT5 antibody (Alexa Fluor® 647 Conjugate), followed by incubation at room temperature for 40 min. Fluorescence intensity of pSTAT5 in CD3 positive cells was detected by FACS.
Inhibition rate at individual compound concentration was calculated with the following formula:
Inhibition rate=(MFI value(IFN-α-stimulated control)−MI value(2/10 nM compound treated group)/MFI value(IFN-α-stimulated control)[…]
wherein: MFI value meant fluorescence intensity value; IFN-α-stimulated control meant control group which was operated similarly to the experimental groups but no compound of the present invention was added.

[5] = In-vivo pharmacokinetic test in mice; details: mouse, po; BALB/c female mice, gavage 10 mg/kg, plasma
Method: LC-MS/MS method is used to determine the drug concentration in the plasma of mice at different times after intragastric administration of the compound of the example. Relevant pharmacokinetic parameters are calculated to study the pharmacokinetic behavior of the compound of the present invention in mice, thereby evaluating the pharmacokinetic characteristics thereof.
Test animal was healthy adult BALB/c female mouse (provided by Chengdu Yaokang Biotechnology Co., Ltd.);
Compound administration and sample collection: compound was administered to BALB/c female mice by gavage (10 mg/kg). At 0.25, 0.5, 1, 2, 4, 6, 8, and 24 hours after administration, 60 μL of whole blood of the mouse fundus venous plexus were collected and centrifuged at 4000 rpm for 10 min to provide plasma.
Sample analysis: 10 μL of mouse plasma samples were respectively added with 290 μL of acetonitrile solution containing internal standard to precipitate proteins. After swirling for 10 min and centrifuging at 4000 rpm for 10 min, 200 μL of supernatant was added to 96-well plate, and analyzed by LC-MS/MS at an injection volume of 1 μL.

Chain of TYK2 JH2 domain (P29597 589-875): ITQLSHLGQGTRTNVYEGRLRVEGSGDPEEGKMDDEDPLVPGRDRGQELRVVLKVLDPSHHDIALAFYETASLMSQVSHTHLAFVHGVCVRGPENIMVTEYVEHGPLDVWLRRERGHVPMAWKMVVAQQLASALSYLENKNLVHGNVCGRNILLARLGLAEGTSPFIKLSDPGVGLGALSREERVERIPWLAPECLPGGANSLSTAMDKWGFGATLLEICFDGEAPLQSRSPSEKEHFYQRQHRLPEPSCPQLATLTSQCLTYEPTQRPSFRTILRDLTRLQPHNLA

**Q.** What does the source list for CCONC(=O)c1cnc(Nc2ccnc(OC)n2)cc1Nc1cc(F)c(Cl)cc1N(C)S(C)(=O)=O [Example 200, 4-((4-chloro-5-fluoro-2-(N-methylmethanesulfonamido)phenyl)amino)-N-ethoxy-6-((2-methoxypyrimidin-4-yl)amino)nicotinamide]?
**A.** pIC50 (TYK2 JH2 domain): 10.22; pIC50 ([1]; Homo sapiens, U2OS): 9.38; pIC50 [2]: < 5.00; pIC50 [3]: < 5.00

**Q.** With CCONC(=O)c1cnc(Nc2cc(C)nc(C)n2)cc1Nc1ccc(C(C)C)cc1N(C)S(C)(=O)=O [Example 201, 6-((2,6-dimethylpyrimidin-4-yl)amino)-N-ethoxy-4-((4-isopropyl-2-(N-methylmethanesulfonamido)phenyl)amino)nicotinamide] as the molecule, how does the pIC50 (TYK2 JH2 domain) read?
**A.** 10.22

**Q.** And the pIC50 ([1]; Homo sapiens)?
**A.** 9.27

**Q.** What about the pIC50 [2] of the same molecule?
**A.** < 5.00

**Q.** What about the pIC50 [3] of the same molecule?
**A.** < 5.00

**Q.** With CCONC(=O)c1cnc(Nc2cc(C)nc(C)n2)cc1Nc1cc(F)cc(-c2ncn(C3CC3)n2)c1OC [Example 204] as the molecule, how does the pIC50 (TYK2 JH2 domain) read?
**A.** 10.22

**Q.** What about the pIC50 ([1]; Homo sapiens, U2OS) of the same molecule?
**A.** 9.27

**Q.** What about the pIC50 [2] of the same molecule?
**A.** < 5.00

**Q.** What about the pIC50 [3] of the same molecule?
**A.** < 5.00

**Q.** What does the source list for CCONC(=O)c1cnc(NC(=O)C2CC2)cc1Nc1cc(F)cc(-c2ncn(C3CC3)n2)c1OC [Example 205]?
**A.** pIC50 ([4]; Homo sapiens, PBMC): > 8.70; pIC50 ([1]; Homo sapiens, U2OS): 8.75; pIC50 [2]: < 5.00; pIC50 [3]: < 5.00

**Q.** For CCONC(=O)c1cnc(Nc2cc(C)nc(C)n2)cc1Nc1cccc(-c2ncc(F)cn2)c1OC [Example 208, 6-((2,6-dimethylpyrimidin-4-yl)amino)-N-ethoxy-4-((3-(5-fluoropyrimidin-2-yl)-2-methoxyphenyl)amino)nicotinamide], which AUC [5] is on record?
**A.** 34.3 µM·h

**Q.** What about the Cmax [5] of the same molecule?
**A.** 16.4 µM

**Q.** And the pIC50 ([1]; Homo sapiens, U2OS)?
**A.** 9.05

**Q.** What about the pIC50 [2] of the same molecule?
**A.** < 5.00

**Q.** And the pIC50 [3]?
**A.** < 5.00

**Q.** Which results are given for CCONC(=O)c1cnc(Nc2cc(C)nc(C)n2)cc1Nc1cc(F)cc(-c2ncc(F)cn2)c1OC [Example 211]?
**A.** pIC50 ([4]; Homo sapiens, PBMC): > 8.70; pIC50 ([1]; Homo sapiens, U2OS): 8.70; pIC50 [2]: < 5.00; pIC50 [3]: < 5.00

**Q.** What does the source list for CCONC(=O)c1cnc(Nc2cc(C)nc(C)n2)cc1Nc1cccc(-c2cnc(C)cn2)c1OC [Example 213]?
**A.** AUC [5]: 49.3 µM·h; Cmax [5]: 18 µM; pIC50 ([1]; Homo sapiens, U2OS): 9.84; pIC50 [2]: < 5.00; pIC50 [3]: < 5.00

**Q.** Which results are given for CCONC(=O)c1cnc(Nc2cc(C)nc(C)n2)cc1Nc1cc(F)cc(-c2cnc(C)cn2)c1OC [Example 214]?
**A.** pIC50 (TYK2 JH2 domain): 10.05; AUC [5]: 41.9 µM·h; Cmax [5]: 9.21 µM; pIC50 ([1]; Homo sapiens, U2OS): 9.80; pIC50 [2]: < 5.00; pIC50 [3]: < 5.00

**Q.** What does the source list for CCONC(=O)c1cnc(Nc2cc(C)nc(C)n2)cc1Nc1cc(F)cc(-c2ncc(C)cn2)c1OC [Example 225, 6-((2,6-dimethylpyrimidin-4-yl)amino)-N-ethoxy-4-((5-fluoro-2-methoxy-3-(5-methylpyrimidin-2-yl)phenyl)amino)nicotinamide]?
**A.** pIC50 ([4]; Homo sapiens, PBMC): > 8.70; pIC50 ([1]; Homo sapiens, U2OS): 9.44; pIC50 [2]: < 5.00; pIC50 [3]: < 5.00

**Q.** With CCONC(=O)c1cnc(Nc2cc(C)nc(C)n2)cc1Nc1cc(F)c(C(C)C)cc1N(C)S(C)(=O)=O [Example 229, 6-((2,6-dimethylpyrimidin-4-yl)amino)-N-ethoxy-4-((5-fluoro-4-isopropyl-2-(N-methylmethanesulfonamido)phenyl)amino)nicotinamide] as the molecule, how does the pIC50 (TYK2 JH2 domain) read?
**A.** 10.30

**Q.** What about the pIC50 ([1]; Homo sapiens, U2OS) of the same molecule?
**A.** 9.37

**Q.** What about the pIC50 [2] of the same molecule?
**A.** < 5.00

**Q.** And the pIC50 [3]?
**A.** < 5.00

**Q.** What does the source list for CCONC(=O)c1cnc(Nc2cc(C)nc(C)n2)cc1Nc1cccc(-c2cnccn2)c1OC [Example 248, 6-((2,6-dimethylpyrimidin-4-yl)amino)-N-ethoxy-4-((2-methoxy-3-(pyrazin-2-yl)phenyl)amino)nicotinamide]?
**A.** pIC50 ([4]; Homo sapiens, PBMC): > 8.70; pIC50 ([1]; Homo sapiens): 8.98; pIC50 [2]: < 5.00; pIC50 [3]: < 5.00

**Q.** What does the source list for CCONC(=O)c1cnc(NC(=O)C2CC2(F)F)cc1Nc1ccc(C2CC2)cc1N(C)S(C)(=O)=O (stereo not drawn) [Example 277, 4-((4-cyclopropyl-2-(N-methylmethanesulfonamido)phenyl)amino)-6-(2,2-difluorocyclopropyl-1-carboxamido)-N-ethoxy nicotinamide]?
**A.** pIC50 (TYK2 JH2 domain): 9.92; pIC50 ([1]; Homo sapiens, U2OS): 9.33; pIC50 [2]: < 5.00; pIC50 [3]: < 5.00

**Q.** With BMS-986165 as the molecule, how does the pIC50 [4] read?
**A.** 8.70

**Q.** And the pIC50 [1]?
**A.** 8.52
